Reference: patent US12440466B2, “Fatty acid derivatives for treating non-alcoholic steatohepatitis” (BASF AS, priority 2017, dated 2025)
Marks after values point to notes of the source that are not given here.

What was measured:
CDAA/high-fat fed mice = assay: Hepatic hydroxyproline (HYP) content, CDAA/high-fat diet induced NASH mouse model; type: in vivo
Source text: Mouse models that are deficient in methionine and/choline (MCD and CDAA respectively) are well established for studying the development and treatment of NASH in pre-clinical drug development. As precursors for the synthesis of phosphatidylcholine, a dietary deficiency of methionine/choline leads to an inability to synthesize hepatic lipoproteins for the export of triglyceride that results in severe hepatic steatosis, inflammation and fibrosis.
Although the widely used methionine-choline deficient (MCD) diet consistently reproduces severe NASH-like hepatic inflammation and fibrosis in mice, it is also associated with severe weight-loss (loss of both skeletal muscle and fat mass). This is associated with an increased risk of death which presents major problems for long-term fibrogenesis experiments.
In Biological Examples 1-7, studies were performed in male C56BL/6J mice (9 weeks old). Mice were fed either choline-sufficient (CS) or choline deficient high-fat diets (31% total calories; “CDAA/high-fat”). The NASH inducing diet was instigated 6 weeks prior to the commencement of treatment in order to design the study as a treatment/reversal set-up rather than prophylaxis.
In Biological Examples 1-5, mice were divided into 6 experimental groups (n=9 per group) and fed either CS or CDAA/high-fat diets. After 6 weeks of either the CS- or CDAA diet, mice were orally administered Compound A or comparison Compound N, both at 2 doses, 0.15 mmol/kg bw/day (low-dose, LD) and 0.3 mmol/kg bw per day (high-dose, HD). The test substances were administered orally as admix to the high-fat diet. Hepatic fibrosis was assessed by both measurement of hydroxyproline (HYP) content and Sirius Red (SR) morphometry. Fibrosis, inflammation and metabolism related transcripts levels were measured by quantitative real-time polymerase chain reaction (qPCR).

Col1a1 mRNA = assay: Hepatic Col1a1 mRNA expression by qPCR, CDAA/high-fat diet mouse model; type: in vivo; conditions: CDAA/high-fat fed mice
Source text: (§1) Mice were fed either choline-sufficient (CS) or choline deficient high-fat diets (31% total calories; “CDAA/high-fat”). The NASH inducing diet was instigated 6 weeks prior to the commencement of treatment in order to design the study as a treatment/reversal set-up rather than prophylaxis.
After 6 weeks of either the CS- or CDAA diet, mice were orally administered Compound A or comparison Compound N, both at 2 doses, 0.15 mmol/kg bw/day (low-dose, LD) and 0.3 mmol/kg bw per day (high-dose, HD). The test substances were administered orally as admix to the high-fat diet. Hepatic fibrosis was assessed by both measurement of hydroxyproline (HYP) content and Sirius Red (SR) morphometry. Fibrosis, inflammation and metabolism related transcripts levels were measured by quantitative real-time polymerase chain reaction (qPCR).
(§2) Studies were performed in male C56BL/6J mice (9 weeks old). Mice were divided into 6 experimental groups (n=9 per group) containing either CS or CDAA/high-fat diets, as described above. The NASH inducing CDAA/high fat diet was instigated 6 weeks prior to the commencement of treatment in order to assess treatment/reversal rather than prophylaxis. […] Compound A was administered orally as admix to the high-fat diet whilst GLP-1 agonist was delivered via intraperitoneal injection (i.p.). Fibrosis, inflammation and metabolism related transcripts levels were measured by quantitative real-time polymerase chain reaction (qPCR) in isolated liver tissue.

MMP-13 mRNA = assay: Hepatic MMP-13 mRNA expression by qPCR, CDAA/high-fat diet mouse model; type: in vivo; conditions: CDAA/high-fat fed mice; Compound A 0.3 mmol/kg bw/day oral; GLP-1a 0.4 mg/kg once weekly i.p.
Protocol: as §1, §2

hepatic transcriptome = assay: Hepatic transcriptome (gene expression probes) in APOE*3.CETP transgenic mice; type: in vivo, mouse; conditions: Compound A at a fraction of the dose of the omega-3 ethyl esters, data not shown
[1] = Body weight, liver weight and food intake in ob/ob AMLN mice; type: in vivo, mouse
Protocol: (§3) Obese diet-induced B6.V-Lepob/Jrj mice (ob/ob) are consistently fibrosis (liver) prone when cholesterol (2%), 40% fat (containing 18% trans-fatty acids) and 20% fructose are added to a high-caloric diet (i.e., AMLN high-fat diet). ob/ob mice on AMLN diet (termed ‘ob/ob AMLN mice’) develop steatohepatitis and fibrosis within a shorter timeframe ([…]) compared with wild-type C57BL/6 mice (AMLN mice) fed the same diet. ob/ob AMLN mice provide an obese diet-induced model of NASH that also allows the study of effects on glycemic control. Development of NASH in the ob/ob AMLN model is confirmed by biopsy.
(§4) In Biological Examples 10-12, 15, and 19, studies were performed in male ob/ob mice (5 weeks old) fed an AMLN high-fat diet for 15 weeks, then randomized into 3 groups (n=10 per group) to receive either 112 mg/kg bw per day of Compound A via diet, 30 mg/kg bw per day pioglitazone via diet or no treatment (vehicle) for a further 4 weeks. An oral glucose tolerance test (OGTT) was performed at week 3. Hepatic fibrosis was assessed via measurements of hepatic fibrogenic/fibrolytic gene expression by RNA sequencing at 4 weeks.
(§5) In Biological Examples 10, 13-14, and 16-18, studies were performed in male ob/ob mice (5 weeks old) fed an AMLN high-fat diet for 18 weeks, then randomized into 6 groups (n=10 per group) to receive either Compound A (at 3 different daily doses, 45 mg/kg, 90 mg/kg or 135 mg/kg) via diet, 30 mg/kg bw per day obeticholic acid (OCA) via diet, or no treatment (vehicle) for a further 8 weeks. Assessment of NASH related parameters and fibrosis was made at study end by quantitative immune histochemistry (IHC) measurements.

[2] = test system: genes regulating extracellular matrix (ECM) stability or fibrolysis; assay: Hepatic ECM stability/fibrolysis gene expression by RNA sequencing in ob/ob AMLN mice; type: in vivo, mouse; conditions: 4 weeks, Compound A 112 mg/kg, pioglitazone 30 mg/kg
Protocol: as §3, §4

[3] = test system: α-smooth muscle actin (SMA); assay: Hepatic α-SMA content by quantitative IHC in ob/ob AMLN mice; type: in vivo, mouse; conditions: 8 weeks; for α-SMA (total and % of fractional area content): vs vehicle
Protocol: as §3, §5

ob/ob AMLN mice [4] = assay: Plasma triglyceride and total cholesterol levels in ob/ob AMLN mice; type: in vivo, mouse; conditions: 8 weeks
Protocol: as §3, §5

ob/ob AMLN mice [5] = assay: Oral glucose tolerance test (OGTT) and glycemic control in ob/ob AMLN mice; type: in vivo, mouse; conditions: after 3 weeks, Compound A 112 mg/kg, pioglitazone 30 mg/kg
Protocol: as §3, §4
After 3 weeks of administration of Compound A (112 mg/kg), pioglitazone, or vehicle control, an oral glucose tolerance test (OGTT) was performed in ob/ob AMLN mice.

[6] = 8 weeks, Compound A 45, 90 and 135 mg/kg, OCA 30 mg/kg bw per day

## CC/C=C\C/C=C\C/C=C\C/C=C\C/C=C\CCCCOC(CC)C(=O)O (stereo not drawn) [Compound A, 2-((5Z,8Z,11Z,14Z,17Z)-icosa-5,8,11,14,17-pentaenyloxy)butanoic acid]
CDAA/high-fat fed mice; HD 0.3 mmol/kg bw per day orally as admix to diet
  Hydroxyproline (μg) content per 100 mg liver: 37 μg HYP/per 100 mg liver
CDAA/high-fat fed mice; LD 0.15 mmol/kg bw/day orally as admix to diet
  Hydroxyproline (μg) content per 100 mg liver: 38 μg HYP/per 100 mg liver
CDAA/high-fat fed mice; high dose (HD) 0.3 mmol/kg bw per day orally as admix to diet
  Hydroxyproline (μg) content per liver: 750** μg
CDAA/high-fat fed mice; low dose (LD) 0.15 mmol/kg bw/day orally as admix to diet
  Hydroxyproline (μg) content per liver: 800* μg
Col1a1 mRNA; Compound A 0.3 mmol/kg bw/day oral, GLP-1a 0.4 mg/kg once weekly i.p., alone or combined
  Col1a1 (relative mRNA expression): 6.2***
Col1a1 mRNA; HD 0.3 mmol/kg bw per day
  Col1a1 (relative mRNA expression): 6***
Col1a1 mRNA; LD 0.15 mmol/kg bw/day
  Col1a1 (relative mRNA expression): 10***
MMP-13 mRNA
  MMP-13 (relative mRNA expression): 1.6***
Hepatic transcriptome
  gene expression probes significantly up- or down-regulated in the liver: > 1094
[1]; 4 weeks, Compound A 112 mg/kg
  body weight: no effect
[1]; [6]
  body weight: neither Compound A (45 mg/kg, 90 mg/kg, and 135 mg/kg) nor OCA significantly affected body weight
  food intake: not affected
[2]
  hepatic expression of LOX-like 2 (LOXL2): significantly reduced
  hepatic expression of LOXL1: significantly reduced
  hepatic expression of TIMP1: significantly reduced
  hepatic expression of lysyl-oxidase (LOX): significantly reduced
[3]; Compound A 45 mg/kg
  area percentage of α-SMA content compared to pre-treatment biopsy: non-significant trend
[3]; Compound A 90 mg/kg
  area percentage of α-SMA content compared to pre-treatment biopsy: non-significant trend
  α-SMA (total and % of fractional area content): markedly reduced
[3]; Compound A 135 mg/kg
  area percentage of α-SMA content compared to pre-treatment biopsy: decreased
  α-SMA (total and % of fractional area content): markedly reduced
ob/ob AMLN mice [4]; Compound A 90 mg/kg
  plasma total cholesterol levels: comparable reductions
  plasma triglyceride levels: comparable reductions
ob/ob AMLN mice [4]; Compound A 135 mg/kg
  plasma total cholesterol levels: comparable reductions
  plasma triglyceride levels: comparable reductions
ob/ob AMLN mice [5]
  fasting plasma glucose levels: significant reductions
  glucose excursion after glucose load (AUC 0-240 mins), OGTT: significantly reduced
